{"source": "patent US20140315889A1", "about": "“HYDROXAMATE DERIVATIVES FOR HDAC INHIBITOR, AND THE PHARMACEUTICAL COMPOSITION COMPRISING THEREOF” (CHONG KUN DANG PHARMACEUTICAL CORP., priority 2011, published 2014)", "type_in_all_cases": "biochemical", "key": {"[1]": {"target": "T1, Human recombinant HDAC1 (Homo sapiens, UniProt Q13547)", "T1 construct": "purchased Enzo Life Science Co. (named for the kit; assigned to the enzyme from the BML- catalogue prefix) BML-SE456", "T1 sequence (Q13547 whole entry)": "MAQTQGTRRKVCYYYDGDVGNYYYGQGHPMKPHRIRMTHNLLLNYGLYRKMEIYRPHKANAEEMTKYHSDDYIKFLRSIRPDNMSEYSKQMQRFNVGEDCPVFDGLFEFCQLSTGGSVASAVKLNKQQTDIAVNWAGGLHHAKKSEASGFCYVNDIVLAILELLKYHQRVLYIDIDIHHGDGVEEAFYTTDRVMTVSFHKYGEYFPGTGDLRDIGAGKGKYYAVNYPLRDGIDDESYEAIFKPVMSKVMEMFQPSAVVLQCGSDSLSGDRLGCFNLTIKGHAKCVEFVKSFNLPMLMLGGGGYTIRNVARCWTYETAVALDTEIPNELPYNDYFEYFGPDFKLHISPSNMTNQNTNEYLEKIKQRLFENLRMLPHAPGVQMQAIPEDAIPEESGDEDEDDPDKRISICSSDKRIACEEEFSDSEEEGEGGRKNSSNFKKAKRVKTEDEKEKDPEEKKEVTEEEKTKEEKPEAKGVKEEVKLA", "test": "HDAC enzyme activity test, HDAC1", "method": "(§1) Then, 0.3 μg of enzyme and 10 μM of substrate per well were added, reacted at 30° C. for 60 minutes. Thereto, Fluor de Lys® Developer II (BML-KI176) was added and reacted for 30 minutes. […] From the data, the respective IC50 were calculated by GraphPad Prism 4.0 program."}, "[2]": {"target": "T2, HDAC8 (Homo sapiens, UniProt Q9BY41)", "T2 sequence (Q9BY41 1-377)": "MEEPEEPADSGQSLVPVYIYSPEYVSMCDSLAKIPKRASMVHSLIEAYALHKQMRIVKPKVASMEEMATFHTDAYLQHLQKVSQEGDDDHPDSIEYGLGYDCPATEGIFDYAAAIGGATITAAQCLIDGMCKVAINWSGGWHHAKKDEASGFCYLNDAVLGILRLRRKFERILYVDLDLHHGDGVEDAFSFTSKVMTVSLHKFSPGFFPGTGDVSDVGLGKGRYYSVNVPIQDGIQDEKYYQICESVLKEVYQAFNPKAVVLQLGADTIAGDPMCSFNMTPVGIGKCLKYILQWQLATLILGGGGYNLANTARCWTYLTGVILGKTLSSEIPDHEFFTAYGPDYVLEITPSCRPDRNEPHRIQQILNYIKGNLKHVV", "test": "HDAC enzyme activity test, HDAC8", "details": "Table 11, eleven HDAC isozymes; read-out: Inhibition ability (IC50) against HDAC8", "method": "as §1"}, "[3]": {"target": "T3, human recombinant HDAC6 (Homo sapiens, UniProt Q9UBN7)", "T3 construct": "purchased Calibiochem Co. (so in the source) 382180", "T3 sequence (Q9UBN7 1-1215)": "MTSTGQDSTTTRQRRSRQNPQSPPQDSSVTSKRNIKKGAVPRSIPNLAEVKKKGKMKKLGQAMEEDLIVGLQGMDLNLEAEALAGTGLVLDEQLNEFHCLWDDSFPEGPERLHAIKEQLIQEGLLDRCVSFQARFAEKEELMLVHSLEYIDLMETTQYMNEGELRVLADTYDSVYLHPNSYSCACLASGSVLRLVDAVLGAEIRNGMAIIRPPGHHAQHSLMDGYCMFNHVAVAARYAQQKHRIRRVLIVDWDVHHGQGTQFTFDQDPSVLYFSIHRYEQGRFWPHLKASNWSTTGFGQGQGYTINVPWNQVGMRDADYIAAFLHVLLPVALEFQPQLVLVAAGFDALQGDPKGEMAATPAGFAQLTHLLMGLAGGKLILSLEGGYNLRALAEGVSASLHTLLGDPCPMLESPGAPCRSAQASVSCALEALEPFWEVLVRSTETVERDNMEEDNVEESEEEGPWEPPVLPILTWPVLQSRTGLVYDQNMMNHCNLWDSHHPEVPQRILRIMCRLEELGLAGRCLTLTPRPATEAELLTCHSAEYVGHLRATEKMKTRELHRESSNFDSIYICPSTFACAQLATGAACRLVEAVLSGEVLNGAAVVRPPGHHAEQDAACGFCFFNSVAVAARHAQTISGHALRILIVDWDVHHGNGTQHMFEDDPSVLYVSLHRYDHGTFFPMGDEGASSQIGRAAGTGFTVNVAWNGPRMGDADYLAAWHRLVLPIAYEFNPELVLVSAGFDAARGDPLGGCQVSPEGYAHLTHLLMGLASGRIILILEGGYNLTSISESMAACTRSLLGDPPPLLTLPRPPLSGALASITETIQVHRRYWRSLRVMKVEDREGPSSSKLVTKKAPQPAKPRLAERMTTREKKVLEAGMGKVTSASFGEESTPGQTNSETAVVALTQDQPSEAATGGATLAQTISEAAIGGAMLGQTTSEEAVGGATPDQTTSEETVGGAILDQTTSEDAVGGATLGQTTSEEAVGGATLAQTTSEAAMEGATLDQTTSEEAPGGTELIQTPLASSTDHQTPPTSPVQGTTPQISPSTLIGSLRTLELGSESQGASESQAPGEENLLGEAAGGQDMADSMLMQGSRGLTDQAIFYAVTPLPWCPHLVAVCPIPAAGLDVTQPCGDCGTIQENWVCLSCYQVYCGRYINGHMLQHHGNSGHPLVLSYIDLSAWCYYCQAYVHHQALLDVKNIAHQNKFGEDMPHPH", "test": "HDAC enzyme activity test, HDAC6", "method": "as §1"}, "[4]": {"target": "HDAC9 (Homo sapiens, UniProt Q9UKV0)", "sequence (Q9UKV0 whole entry, species assumed)": "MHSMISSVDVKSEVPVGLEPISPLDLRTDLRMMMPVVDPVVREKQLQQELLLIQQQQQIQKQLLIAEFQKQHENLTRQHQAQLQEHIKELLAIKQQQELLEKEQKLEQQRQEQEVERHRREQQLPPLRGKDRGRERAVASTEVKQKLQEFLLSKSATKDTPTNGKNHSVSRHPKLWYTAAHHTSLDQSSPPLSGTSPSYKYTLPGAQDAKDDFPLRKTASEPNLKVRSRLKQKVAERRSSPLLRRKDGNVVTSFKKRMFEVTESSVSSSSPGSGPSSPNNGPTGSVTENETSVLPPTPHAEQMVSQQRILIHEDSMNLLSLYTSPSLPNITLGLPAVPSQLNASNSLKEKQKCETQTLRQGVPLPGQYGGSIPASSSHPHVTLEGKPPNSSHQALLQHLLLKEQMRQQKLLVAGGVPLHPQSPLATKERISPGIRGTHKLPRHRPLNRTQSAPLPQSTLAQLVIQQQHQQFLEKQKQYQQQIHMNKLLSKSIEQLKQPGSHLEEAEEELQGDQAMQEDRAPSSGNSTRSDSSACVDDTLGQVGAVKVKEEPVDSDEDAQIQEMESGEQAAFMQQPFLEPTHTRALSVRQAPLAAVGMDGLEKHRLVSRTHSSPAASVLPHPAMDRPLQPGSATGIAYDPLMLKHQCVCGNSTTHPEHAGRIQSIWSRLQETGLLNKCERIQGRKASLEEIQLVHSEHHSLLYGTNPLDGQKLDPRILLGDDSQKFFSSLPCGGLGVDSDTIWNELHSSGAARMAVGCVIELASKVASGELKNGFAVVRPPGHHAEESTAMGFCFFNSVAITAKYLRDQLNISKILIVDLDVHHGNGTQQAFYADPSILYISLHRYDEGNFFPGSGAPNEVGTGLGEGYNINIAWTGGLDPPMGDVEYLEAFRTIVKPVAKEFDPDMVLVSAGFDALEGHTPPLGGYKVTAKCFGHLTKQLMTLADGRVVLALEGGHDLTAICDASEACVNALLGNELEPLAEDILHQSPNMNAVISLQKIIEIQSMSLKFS", "test": "HDAC enzyme activity test, HDAC9", "details": "Table 11, eleven HDAC isozymes; read-out: Inhibition ability (IC50) against HDAC9", "method": "as §1"}, "[5]": {"target": "T4, HDAC11 (Homo sapiens, UniProt Q96DB2)", "T4 sequence (Q96DB2 1-347)": "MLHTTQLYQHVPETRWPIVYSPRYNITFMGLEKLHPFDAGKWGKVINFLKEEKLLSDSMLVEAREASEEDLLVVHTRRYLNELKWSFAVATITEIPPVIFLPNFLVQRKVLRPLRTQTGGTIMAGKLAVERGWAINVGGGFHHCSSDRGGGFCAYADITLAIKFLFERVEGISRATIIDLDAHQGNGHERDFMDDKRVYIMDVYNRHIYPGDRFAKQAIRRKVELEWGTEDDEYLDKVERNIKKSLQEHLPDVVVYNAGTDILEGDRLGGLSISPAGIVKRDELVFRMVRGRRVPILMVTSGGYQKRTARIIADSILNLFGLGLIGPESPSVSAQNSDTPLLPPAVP", "test": "HDAC enzyme activity test, HDAC11", "details": "Table 11, eleven HDAC isozymes; read-out: Inhibition ability (IC50) against HDAC11", "method": "as §1"}}, "note": "pIC50: −log10 of the molar value. Like-named read-outs stand apart in the source and are kept apart here.", "data": [{"smiles": "CC1(C)CC(=O)c2c(n(Cc3ccc(C(=O)NO)cc3)c3ccccc23)C1", "note": "[Compound 19, 4-((2,2-dimethyl-4-oxo-1,2,3,4-tetrahydrocarbazol-9-yl)methyl)-N-hydroxybenzamide]", "values": [{"measurement": "pIC50", "setting": "[1]; Table 11, eleven HDAC isozymes, read-out: Inhibition ability (IC50) against HDAC1", "result": 4.74}, {"measurement": "pIC50", "setting": "[1]; Table 12, read-out: Inhibition ability (IC50) HDAC1", "result": 5.37}, {"measurement": "pIC50", "setting": "[2]", "result": 6.10}, {"measurement": "pIC50", "setting": "[3]; Table 11, eleven HDAC isozymes, read-out: Inhibition ability (IC50) against HDAC6", "result": 7.45}, {"measurement": "Selectivity for HDAC6, HD1/HD6", "setting": "[3]; Table 12, ratio HDAC1 IC50 / HDAC6 IC50", "result": 201.8}, {"measurement": "pIC50", "setting": "[3]; Table 12, read-out: Inhibition ability (IC50) HDAC6", "result": 7.68}, {"measurement": "pIC50", "setting": "[4]", "result": 4.52}, {"measurement": "pIC50", "setting": "[5]", "result": 4.65}]}]}
